Assay results: article PMC6804997 (PLoS ONE, 2019)

Assays:
HK-2 cells [1] = assay: Annexin V/PI flow cytometry of myoglobin-stimulated HK-2 cells; assay type: cell-based, Human; details: F7 […], 5 nM and 10 nM; Mb 200 μM, 24 hrs
Procedure: Human renal proximal tubule cell line (HK-2) cells were purchased from Shanghai Institute of Biochemistry and Cell Biology, Shanghai, China and maintained in DMEM/F12 (Hyclone, Beijing, China) supplemented with 10% fetal bovine serum (FBS, Hyclone, Australia) and 1% penicillin and streptomycin at 37°C under humidified atmosphere of 5% carbon dioxide. Then cells were seeded on six-well plates (Shanghai Sunub Bio-Tech Development Inc., Shanghai, China) at a density of 200,000 cells per well, divided into four groups at exponential phase: the control group (cells incubated with DMEM/F12+10%FBS), the model group (cells incubated with 200 μM ferrous myoglobin (M0630, Sigma-Aldrich, St. […]
Cell apoptosis was evaluated by flow cytometry using an Annexin V-FITC apoptosis analysis kit (AO-2001-02P-H, Tianjin Sungene Biotech Co., Ltd, Tianjin, China). After the four group of cells were cultured under the condition as described above for 24 hours, they were digested by trypsin, collected, and washed three times with PBS diluted 1×binding buffer (1ml per tube). […] After being supplemented to 500 μL using cold PBS followed by gentle vortex, samples were ready to be testes. Apoptosis signals were detected using a CytoFLEX by Beckman & Coulter.

[2] = test system: liver, kidney, spleen, heart and lung tissues of mice; assay: Histological examination of organs from normal mice given F7; assay type: in vivo; details: oral F7 40 mg/kg/d for 3 days, without glycerol injection
Procedure: We firstly examined whether the mice model of glycerol-induced AKI was successfully established, and tested the protective effect of F7 at a dose of 40 mg/kg/d for 3 days on renal function and pathological changes. […] We also evaluated the liver, kidney, spleen, heart and lung tissues of mice with oral administration of F7 at the same dose as that in F7+glycerol group for 3 days, but without glycerol injections.
Supplementary file pone.0224158.s002.tif: S2 Fig Histological examinations of different organs from the normal mice administrated with F7. Photomicrographs (×200) illustrated H&E staining of the heart, liver, spleen, lung and kidney tissues from mice with oral administration of F7 at a dose of 40 mg/kg/d for 3 days but without glycerol injection. (TIF) Click here for additional data file.

HK-2 cells [3] = assay: Western blot of myoglobin-stimulated HK-2 cells; assay type: cell-based, Human
Procedure: Kidney tissue or cultured cell samples were sufficiently lysed in the mixture of RIPA buffer (50 mM Tris (pH7.4), 150 mM NaCl, 1% TritonX-100, 1% sodium deoxycholate, 0.1% SDS) containing 4% cocktail proteinase inhibitor (Roche, Switzerland) on ice. After centrifuged at 13,000 rpm for 15 min at 4°C, supernate of the homogenate were collected for protein quantification. Protein equivalent to 50 ug were loaded into 10–12% SDS-PAGE gels for electrophoretic separation, and then transferred to polyvinylidene difluoride (PVDF) membranes (0.2 μm, Bio-Rad Laboratories, Inc.). After protein blotting, membranes were blocks using 5% non-fat dried milk for 1h at room temperature, then probed with primary antibodies at 4°C overnight, and incubated with secondary antibodies for 1h at room temperature. […] Immunoblots were visualized with the Immobilon Western Chemiluminescent HRP Substrate (Millipore Corporation, Billerica, MA, United States) and measured with Bio-Rad Chemi Doc MP. […]

Cc1nc(N(C)c2ccc(Oc3ccc(C(=O)NO)cn3)cc2)c2ccccc2n1 [F7, N-hydroxy-6-(4-(methyl(2-methylquinazolin-4-yl)amino)phenoxy)nicotinamide]
growth of HK-2 cells under stimulation of myoglobin (HK-2 cells [1]): improved growth of HK-2 cells under stimulation of myoglobin (Mb) in a dose-dependent manner
organ damage (histological sections of liver, kidney, spleen, heart and lung) [2]: did not exhibited organ damage
HDAC6 expression in vitro (HK-2 cells [3]): effectively inhibited
inflammation in HK-2 cells (NF-κB pathway activation) (HK-2 cells [3]): ameliorated
